The target of experiment [1] is T1, PIP4K2A (full length protein, SignalChem) (Homo sapiens, UniProt P48426).
T1 construct: 4 nM PIP4K2A (full length protein, SignalChem); purchased SignalChem
T1 sequence (P48426 1-406): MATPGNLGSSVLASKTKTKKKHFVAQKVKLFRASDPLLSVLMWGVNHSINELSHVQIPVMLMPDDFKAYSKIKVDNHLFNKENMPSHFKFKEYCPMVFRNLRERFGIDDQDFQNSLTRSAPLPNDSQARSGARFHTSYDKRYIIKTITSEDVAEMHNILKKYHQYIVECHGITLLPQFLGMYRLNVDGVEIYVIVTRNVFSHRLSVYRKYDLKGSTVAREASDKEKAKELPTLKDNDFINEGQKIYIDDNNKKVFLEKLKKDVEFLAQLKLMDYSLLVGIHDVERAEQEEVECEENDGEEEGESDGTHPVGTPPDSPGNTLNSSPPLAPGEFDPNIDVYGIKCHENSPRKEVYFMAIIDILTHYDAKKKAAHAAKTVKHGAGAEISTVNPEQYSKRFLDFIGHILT
Kind of experiment: Kinase Assay PIP4K2 A (Sprint); ADP-Glo biochemical assay. The following applies: Table 2; compounds listed under IC50 range headings. A digest of the protocol: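 ADP-Glo luminescence detected ADP after a 1 h RT reaction started with 60 μM ATP solution. Before that, full-length PIP4K2A (4 nM in mix) with 100 μM PI(5)P diC8 was pre-incubated 15 min with compounds in MOPS buffer pH 7.2, 25 mM MgCl2, 0.005% Tween 20. IC50 derived from % inhibition relative to DMSO over 10 three-fold concentrations.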

The target of experiment [2] is T2, GST tagged PIP4KtypeIIB (Homo sapiens, UniProt P78356).
T2 construct: made in house; host or cells: E. coli
T2 sequence (P78356 1-416): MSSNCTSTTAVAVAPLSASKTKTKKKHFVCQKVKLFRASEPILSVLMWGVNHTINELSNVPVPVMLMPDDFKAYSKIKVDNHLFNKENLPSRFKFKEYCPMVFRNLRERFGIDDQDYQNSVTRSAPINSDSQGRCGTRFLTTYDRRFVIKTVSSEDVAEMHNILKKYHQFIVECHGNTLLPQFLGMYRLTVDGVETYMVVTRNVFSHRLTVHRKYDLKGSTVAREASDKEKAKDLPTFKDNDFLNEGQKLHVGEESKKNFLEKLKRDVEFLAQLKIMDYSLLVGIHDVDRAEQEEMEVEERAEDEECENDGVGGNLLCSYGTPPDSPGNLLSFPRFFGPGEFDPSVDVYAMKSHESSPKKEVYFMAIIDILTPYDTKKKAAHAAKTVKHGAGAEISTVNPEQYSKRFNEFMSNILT
Kind of experiment: Trans-FI P kinase assay PIP4K2B (PIP4KtypeIIB inhibition assay). Type of experiment: biochemical. The following applies: Table 4; compounds listed under IC50 range headings; 100 uM GTP, 5 nM PIP4KIIB; read-out: Trans-FI P kinase assays: PIP4K2B IC50. A digest of the protocol: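 Transcreener FI fluorescence, converted to GDP by calibration, tracked product from 5 nM E. coli-expressed GST-PIP4KIIB acting on 80 uM PI5P (DOPE carrier) with 100 uM GTP. Compound (top 4.8 uM final, 5% DMSO) was preincubated 1 h at 27 C before the 2 h reaction; IC50 fitted from residual activity.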

In experiment [3] the target is T3, GST tagged PIP4KtypeIIA (Homo sapiens, UniProt P48426).
T3 construct: made in house; host or cells: E. coli
T3 sequence (P48426 1-406): T1 sequence (P48426 1-406)
Kind of experiment: ADP-glo kinase assay PIP4K 2A (PIP4KtypeIIA inhibition assay). The class given is biochemical. The following applies: Table 3; compounds listed under IC50 range headings; 10 uM ATP, 0.5 nM PIP4KIIA. A digest of the protocol: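 Read-out was ADP-Glo luminescence converted to μM ADP, with IC50 plotted as % of no-inhibitor activity against log concentration. Reactions contained 10 μM ATP, 80 μM PI5P with DOPE carrier, and 0.5 nM GST-tagged PIP4KIIA (E. coli-expressed) in pH 7.3 HEPES/MgCl2 buffer with 5% DMSO. Enzyme and compound (≤4.8 μM) were preincubated 1 h at 27 °C before the 1 h reaction.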
Background: In ADP-Glo the light output rises with the ADP produced.

21 compounds from patent US11919902B2, “Aryl-bipyridine amine derivatives as phosphatidylinositol phosphate kinase inhibitors” (HiberCell, Inc., priority 2017, dated 2024) can be followed below.

pIC50: −log10 of the molar value.

The pIC50 is −log10 of the IC50, conventionally taken in molar units. For the compound `CN(C)C(=O)c1ccc(-c2cc(-c3cc(N)ncn3)cnc2N)nc1` [Example 217, 2′-amino-5′-(6-aminopyrimidin-4-yl)-N,N-dimethyl-[2,3′-bipyridine]-5-carboxamide], the pIC50 in experiment [1], in experiment [2] and in experiment [3] was 6.00 to 7.00 each time.

As for `Nc1ncc(-c2csc3ncccc23)cc1-c1ccc(N2CCCC2=O)cn1` [Example 23, 1-(2′-amino-5′-(thieno[2,3-b]pyridin-3-yl)-[2,3′-bipyridin]-5-yl)pyrrolidin-2-one], the pIC50 in experiment [1] was 7.00 to 8.30; in experiment [2], 6.00 to 7.00; in experiment [3], 6.00 to 7.00.

For `CS(=O)(=O)N1Cc2nccc(-c3cncc(-c4ccc(N5CCCC5=O)cc4)c3)c2C1` [Example 64, 1-(4-(5-(6-(methylsulfonyl)-6,7-dihydro-5H-pyrrolo[3,4-b]pyridin-4-yl)pyridin-3-yl)phenyl)pyrrolidin-2-one], the pIC50 in experiment [1] was 6.00 to 7.00; in experiment [2], below 5.30; in experiment [3] it was below 5.30.

Regarding `CN(C)C(=O)c1ccc(-c2cncc(-c3cnc4c(ccn4C)c3)c2)cc1` [Example 6, N,N-dimethyl-4-(5-(1-methyl-1H-pyrrolo[2,3-b]pyridin-5-yl)pyridin-3-yl)benzamide], the negative logarithm of the IC50 (pIC50) was 5.60 to 6.00 in experiment [1], below 5.30 in experiment [2] and below 5.30 in experiment [3].

As to `CNC(=O)c1cc2c(-c3cncc(-c4ccc(N5CCCC5=O)cc4)c3C)ccnc2o1` [Example 174, N-methyl-4-(4-methyl-5-(4-(2-oxopyrrolidin-1-yl)phenyl)pyridin-3-yl)furo[2,3-b]pyridine-2-carboxamide], the values for the pIC50 in experiment [1], in experiment [2] and in experiment [3] were 7.00 to 8.30, 6.00 to 7.00 and 6.00 to 7.00, respectively.

With `Cn1cc(-c2cncc(-c3ccc(N4CCCC4=O)cc3)c2)ccc1=O` [Example 37, 1-methyl-5′-(4-(2-oxopyrrolidin-1-yl)phenyl)-[3,3′-bipyridin]-6(1H)-one], the pIC50 in experiment [1] is 5.30 to 5.60; in experiment [2], below 5.30; in experiment [3] it was below 5.30.

Consider `CN1C(=O)Cc2c(-c3cncc(-c4ccc(N5CCCC5=O)cc4)c3)ccnc21` [Example 76, 1-methyl-4-(5-(4-(2-oxopyrrolidin-1-yl)phenyl)pyridin-3-yl)-1,3-dihydro-2H-pyrrolo[2,3-b]pyridin-2-one], for which the results for the pIC50 in experiment [1], in experiment [2] and in experiment [3] were 6.00 to 7.00, 5.60 to 6.00 and 5.30 to 5.60, respectively.

On to `CN1CCn2c(cc3c(-c4cncc(-c5ccc(N6CCCCC6=O)cc5)c4)ccnc32)C1=O` [Example 346, 7-methyl-4-(5-(4-(2-oxopiperidin-1-yl)phenyl)pyridin-3-yl)-8,9-dihydropyrido[3′,2′:4,5]pyrrolo[1,2-a]pyrazin-6(7H)-one], for which the pIC50 in experiment [1], in experiment [2] and in experiment [3] was 6.00 to 7.00 throughout.

Take `CN(C)C(=O)c1ccc(-c2cc(-c3ccnc(CNC(=O)c4cccc(N)c4)c3)cnc2N)nc1` [Example 191, 2′-amino-2″-((3-aminobenzamido)methyl)-N,N-dimethyl-[2,3′:5′,4″-terpyridine]-5-carboxamide]: the pIC50 in experiment [1] was 5.60 to 6.00; in experiment [2], 5.60 to 6.00; in experiment [3] it was below 5.30.

Regarding `O=C1CCCN1c1ccc(-c2cncc(-c3c(OC4CCOCC4)cnc4[nH]ccc34)c2)cc1` [Example 268, 1-(4-(5-(5-((tetrahydro-2H-pyran-4-yl)oxy)-1H-pyrrolo[2,3-b]pyridin-4-yl)pyridin-3-yl)phenyl)pyrrolidin-2-one], the figures for the negative-log IC50 (pIC50) in experiment [1], in experiment [2] and in experiment [3] were 5.60 to 6.00, 5.60 to 6.00 and below 5.30, respectively.

Turning to `CNC(=O)c1cnc2[nH]cc(-c3cncc(-c4ccc(N5CCCC5=O)cc4)c3)c2c1` [Example 71, N-methyl-3-(5-(4-(2-oxopyrrolidin-1-yl)phenyl)pyridin-3-yl)-1H-pyrrolo[2,3-b]pyridine-5-carboxamide], the negative logarithm of the IC50 (pIC50) in experiment [1] is 7.00 to 8.30; in experiment [2], 7.00 to 8.00; in experiment [3], 6.00 to 7.00.

As to `CN(C)C(=O)c1ccc(-c2cc(-c3ccnc4ccccc34)cnc2N)nc1` [Example 20, 2′-amino-N,N-dimethyl-5′-(quinolin-4-yl)-[2,3′-bipyridine]-5-carboxamide], the pIC50 was 6.00 to 7.00 in experiment [1], 6.00 to 7.00 in experiment [2] and 5.60 to 6.00 in experiment [3].

On to `CN(C)C(=O)c1ccc(-c2cc(-c3cc(Nc4cccc(NC(=O)c5cccc(N)c5)c4)ncn3)cnc2N)nc1` [Example 219, 2′-amino-5′-(6-((3-(3-aminobenzamido)phenyl)amino)pyrimidin-4-yl)-N,N-dimethyl-[2,3′-bipyridine]-5-carboxamide], for which the values for the pIC50 in experiment [1], in experiment [2] and in experiment [3] were 6.00 to 7.00, 6.00 to 7.00 and 5.60 to 6.00, respectively.

Take `CNC(=O)c1cc2c(-c3cncc(-c4ccc(C(=O)N(C)C)cc4)c3)ccnc2o1` [Example 14, 4-(5-(4-(dimethylcarbamoyl)phenyl)pyridin-3-yl)-N-methylfuro[2,3-b]pyridine-2-carboxamide]: the pIC50 in experiment [1], in experiment [2] and in experiment [3] was 6.00 to 7.00 each time.

As for `Nc1ncc(-c2ccncc2)cc1-c1ccc(N2CCCC2=O)cc1` [Example 84, 1-(4-(6-amino-[3,4′-bipyridin]-5-yl)phenyl)pyrrolidin-2-one], the pIC50 in experiment [1], in experiment [2] and in experiment [3] was 6.00 to 7.00 in each case.

Regarding `Cc1c(-c2ccc(N3CCCC3=O)cc2)cncc1-c1cn(C)c2ncc(C(C)(C)O)cc12` [Example 172, 1-(4-(5-(5-(2-hydroxypropan-2-yl)-1-methyl-1H-pyrrolo[2,3-b]pyridin-3-yl)-4-methylpyridin-3-yl)phenyl)pyrrolidin-2-one], the pIC50 in experiment [1] is 6.00 to 7.00; in experiment [2] it was 5.60 to 6.00; in experiment [3], 5.60 to 6.00.

For `CN(C)C(=O)c1ccc(-c2cc(-c3ccnc4[nH]c(C(=O)NCc5ccncc5)cc34)cnc2N)nc1` [Example 135, 4-(2′-amino-5-(dimethylcarbamoyl)-[2,3′-bipyridin]-5′-yl)-N-(pyridin-4-ylmethyl)-1H-pyrrolo[2,3-b]pyridine-2-carboxamide], the values for the pIC50 in experiment [1], in experiment [2] and in experiment [3] were 7.00 to 8.30, 7.00 to 8.00 and 6.00 to 7.00, respectively.

For the compound `CN(C)C(=O)c1ccc(-c2cncc(-c3ccncc3)c2)cc1` [Example 1, 4-([3,4′-bipyridin]-5-yl)-N,N-dimethylbenzamide], the results for the pIC50 in experiment [1], in experiment [2] and in experiment [3] were above 5.30, below 5.30 and below 5.30, respectively.

As for `COC(=O)c1cc2c(-c3cnc(N)c(-c4ccc(C(=O)N(C)C)cn4)c3)ccnc2[nH]1` [Example 126, methyl 4-(2′-amino-5-(dimethylcarbamoyl)-[2,3′-bipyridin]-5′-yl)-1H-pyrrolo[2,3-b]pyridine-2-carboxylate], the values for the pIC50 in experiment [1], in experiment [2] and in experiment [3] were 7.00 to 8.30, 7.00 to 8.00 and 7.00 to 8.00, respectively.

Turning to `COc1ncc(-c2cnc(N)c(-c3ccc(N4CCCC4=O)cc3)c2)c2cn[nH]c12` [Example 258, 1-(4-(2-amino-5-(7-methoxy-2H-pyrazolo[3,4-c]pyridin-4-yl)pyridin-3-yl)phenyl)pyrrolidin-2-one], the pIC50 in experiment [1] was 7.00 to 8.30; in experiment [2], 6.00 to 7.00; in experiment [3] it was 6.00 to 7.00.

For `COC(=O)c1cc2c(-c3cncc(-c4ccc(N5CCCC5=O)cc4)c3C)ccnc2[nH]1` [Example 175, methyl 4-(4-methyl-5-(4-(2-oxopyrrolidin-1-yl)phenyl)pyridin-3-yl)-1H-pyrrolo[2,3-b]pyridine-2-carboxylate], the pIC50 is 7.00 to 8.30 in experiment [1], 7.00 to 8.00 in experiment [2] and 7.00 to 8.00 in experiment [3].
